Data as given in patent publication US20030124132A1 (University of Texas, published 2003).

Tests used:
F9 sarcoma tumors = test: Tumor tissue necrosis in F9 sarcoma mouse model; type: in vivo, balb/c nude mice; settings: endotoxin-free tTF 4 μg; diluent 40-50% spontaneous necrosis
Protocol: 1×10^7 F9 sarcoma cells were injected subcutaneously into the right flank of balb/c nude mice. Subcutanous tumors were measured with a caliper in three perpendicular directions a, b, and c, and volumes calculated according to the formula V=π/6×a'b×c. Treatment was initiated when subcutaneous tumors reached a size of 150 to 300 μl.
Reagents were administered into the lateral tail vein.
Mice were closely observed after treatment for clinical signs of toxicity and clinical status was documented at defined time points. Three days after treatment, mice were sacrificed and tumors were harvested. Paraffin embedded tissues were stained with hematoxilin and eosin (H&E). Tissue sections were analyzed on a light microscope by two independent investigators and histological findings were documented. Tumor sections with necrotic areas were scanned with a GS-700 imaging densitometer (Biorad, Hercules, Calif.) and areas of necrosis were calculated as % of total section area.

[1] = Clinical signs of toxicity and histology of normal organs in treated tumor-bearing mice; type: in vivo, SCID mice; settings: for Symptoms (clinical signs of toxicity): endotoxin-free tTF alone
Protocol: Treatment was initiated when subcutaneous tumors reached a size of 150 to 300 μl. Reagents were administered into the lateral tail vein.
(§1) Mice were closely observed after treatment for clinical signs of toxicity and clinical status was documented at defined time points (5 minutes, 10 minutes, 15 minutes, 30 minutes. 1 hour, 2 hours, 24 hours, 48 hours, 72 hours). Blood samples were taken from the tail vein at 1 hour, 2 hours and 24 hours to measure TNFα blood levels. Three days after treatment, the mice were anesthetized, blood samples were taken from the vena cava for coagulation tests, and an autopsy was performed to document any changes in gross pathology. Tumors, lymph node metastases and the major normal organs (heart, lung, brain, liver, kidney, colon, spleen, pancreas) were harvested and prepared for histological analysis.
Tissue samples harvested at the time of autopsy were fixed in 3% NBF (normal buffered formalin) and embedded in paraffin wax. Tissue blocs were cut, dewaxed and stained with hematoxilin and eosin (H&E). Tissue sections were analyzed on a light microscope by two independent investigators and histological findings were documented. Tumor sections with necrotic areas were scanned with a GS-700 imaging densitometer (Biorad, Hercules, Calif.) and areas of necrosis were calculated as % of total section area. Statistical Analysis was performed using SPSS software (SPSS Science Software, Erkrath, Germany) applying the Mann-Whitney-U-test for ungrouped data.

[2] = system: thrombin-antithrombin-complexes (TAT); test: Plasma thrombin-antithrombin-complexes (Enzygnost TAT micro-assay) three days after treatment; type: in vivo; settings: tTF alone; tumor bearing mice, three days after i.v. treatment
Protocol: as §1
At the time of autopsy, citrated blood was sampled from the vena cava and thrombocyte-free plasma was prepared by centrifugation. […] Thrombin-Antithrombin-complexes were detected with the Enzygnost® TAT micro-assay (Dade-Behring, Marburg, Germany) according to the manufacturer's instructions. ATIII levels were determined using the Coamatic® antithrombin-assay (Haemocbrom, Essen, Germany) following the manufacturer's instructions. Changes in the blood levels of thrombin and plasmin were detected by mixing citrated plasma with the respective chromogenic substrates S2238 and S2403 (Haemochrom, Essen, Germany) and measuring the increase of the absorption at 405 nm by an ELISA reader.

[3] = system: A20 lymphoma cells (I-A^d positive), mouse or human plasma; test: In vitro coagulation assay on A20 cells with capture bispecific antibody B21-2/10H10; type: cell-based; settings: for coagulation time: cells alone 190 seconds
L540 tumors = test: Anti-tumor activity of anti-VCAM-1·tTF coaguligand in L540 tumors; type: in vivo, SCID mice; settings: controls
Protocol: The anti-tumor activity of anti-VCAM-1-tTF coaguligand was determined in SCID mice bearing 0.3-0.4 cm^3 L540 tumors. The drug was administered i.v. 3 times at intervals of 4 days.

bEnd 3 cells = test: Cell bound coagulation assay on stimulated endothelial cells (Factor Xa generation); type: cell-based, mouse; settings: for Factor Xa generation due to Factor VIIa production: mix with 2 μg/ml factor VII and 0.01 μg/ml factor VIIa; for Factor Xa generation: mix with 0.5 μg/ml factor VIIa
Protocol: (§2) To assay the coagulation induction of stimulated versus unstimulated endothelial cells, bend 3 cells were seeded in 48 well tissue culture plates at a density of 1×10^4 cells per well and allowed to adhere overnight. Cells were stimulated with endotoxin (0.5 μg/ml and 10 μg/ml) or TNFα (500 U/ml) for 4 h at 37° C. […] After incubation for 45 min at room temperature, cells were washed and incubated with various coagulation factor mixes as follows: (1) 0.5 μg/ml factor VIIa in a mix containing 2.8 μg/ml factor IX, 3.4 μg/ml factor X, 50 μM phospholipids, in calcium buffer (as specified above); (2) 0.01 μg/ml factor VIIa in a mix as in (1); (3) 2 μg/ml factor VII (Calbiochem-Novabiochem, San Diego, Calif.) in a mix as in (1); (4) 2 μg/ml factor VII. 0.01 μg/ml factor VIIa in a mix as in (1). The supernatant of wells was transferred into a 96 well ELISA plate. Substrate S2765 was added and Factor Xa generation measured alongside different concentrations of Factor Xa standard (7 nkatS2222; 0.7 nkatS2222; 0.07 nkatS2222). OD405 nm values were calculated as nkatS2222 Factor Xa from the Factor Xa standard curve.
as §2, with “bEnd” for “To assay the coagulation induction of stimulated versus unstimulated endothelial cells, bend”, “with” for “with various”, “mix” for “mixes”, “follows:” for “follows: (1)”, “buffer;” for “buffer (as specified above); (2) 0.01 μg/ml factor VIIa in a mix as in (1); (3) 2 μg/ml factor VII (Calbiochem-Novabiochem, San Diego, Calif.) in a mix as in (1); (4) 2 μg/ml factor VII. 0.01 μg/ml factor VIIa in a mix as in (1). The”

tTF: extracellular domain of the mature Tissue Factor protein (amino acid 1-219), recombinant; depyrogenated in Example X
average tumor tissue necrosis (F9 sarcoma tumors): 45%
Symptoms (clinical signs of toxicity) [1]: no clinical signs of toxicity
Symptoms (clinical signs of toxicity) ([1]; listed as TTF): None
histology of normal organs (necrosis, thrombosis, abnormalities) ([1]; light microscopy, three days after treatment): No histological abnormalities were seen
TAT [2]: 25.4 ng/mL
coagulation time ([3]; 20,000 molecules of tTF per cell): 140 s
coagulation time ([3]; 300,000 molecules of tTF per cell): 40 s
concentration at which plasma coagulated in 50 seconds ([3]; bound via B21-2/10H10 to A20 cells, separate studies per block): 3 nM
effect on coagulation time ([3]; cells incubated with tTF alone (not bound)): no effect on coagulation time
time to visible fibrin strands after addition of mouse plasma ([3]; tTF bound to A20 cells by B21-2/10H10, untreated cells 164 seconds): 36 s
effect on tumor growth (L540 tumors): did not affect tumor growth
Factor Xa generation due to Factor VIIa production (bEnd 3 cells; cells stimulated with 0.5 μg/ml LPS (row Medium = stimulant alone)): 3.00 nkats2222
Factor Xa generation (bEnd 3 cells; cells stimulated with 0.5 μg/ml LPS, then incubated with row agent (row Medium = stimulant alone)): 2.00 nkats2222
Factor Xa generation (bEnd 3 cells; cells stimulated with 10 μg/ml LPS, then incubated with row agent (row Medium = stimulant alone)): 2.91 nkats2222
Factor Xa generation (bEnd 3 cells; cells stimulated with TNFα (500 U/ml), then incubated with row agent (row Medium = stimulant alone)): 0.67 nkats2222
Factor Xa generation due to Factor VIIa production (bEnd 3 cells; cells stimulated with TNFα (row Medium = stimulant alone)): 1.91 nkats2222
Factor Xa generation (bEnd 3 cells; cells stimulated with medium, then incubated with row agent): 0.40 nkats2222
Factor Xa generation due to Factor VIIa production (bEnd 3 cells; cells stimulated with medium): 0.70 nkats2222
